Experimental findings from US9718790B2, “Triazine derivative and pharmaceutical composition having an analgesic activity comprising the same” (SHIONOGI & CO., LTD., priority 2010, dated 2017) are described below.

The target of one assay is human P2X3 receptor (Homo sapiens (Human), UniProt P56373). The assay is described as follows: Evaluation of human P2X3 receptor inhibitory activity (Fluo-3 calcium fluorescence, FDSS 3000, ATP stimulation).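 Further: stimulus was 50 nM ATP with fluorescence followed for 3 min, and the response per well was peak post-ATP fluorescence divided by the reading at measurement start.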 It counts as cell-based. To be noted: C6BU-1 cells stably expressing human P2X3 receptor.
Sequence of human P2X3 receptor (P56373 whole entry): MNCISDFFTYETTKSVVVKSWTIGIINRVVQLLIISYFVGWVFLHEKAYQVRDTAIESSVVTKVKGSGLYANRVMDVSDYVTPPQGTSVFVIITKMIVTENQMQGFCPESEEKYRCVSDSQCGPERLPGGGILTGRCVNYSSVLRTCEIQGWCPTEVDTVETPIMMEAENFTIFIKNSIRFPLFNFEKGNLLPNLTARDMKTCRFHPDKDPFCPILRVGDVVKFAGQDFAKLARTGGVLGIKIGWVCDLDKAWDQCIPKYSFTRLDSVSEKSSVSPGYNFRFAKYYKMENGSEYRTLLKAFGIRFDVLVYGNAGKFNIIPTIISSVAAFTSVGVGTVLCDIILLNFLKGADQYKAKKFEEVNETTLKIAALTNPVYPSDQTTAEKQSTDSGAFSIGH
The IC50 is the midpoint of a concentration-inhibition curve. In the case of `COC(=O)[C@@H](C)Cn1c(=O)[nH]/c(=N\c2ccc3c(c2)CCCC3)n(Cc2ccc(Cl)cc2)c1=O` [Compound I-0791], the IC50 was 0.266 µM. The same measure, in the same setting: with `CC(C)Oc1ccc(/N=c2\[nH]c(=O)n(CCC(=O)O)c(=O)n2CC2CCC3(CC2)CC3)cc1Cl` [Compound I-1461] the figure was 0.025 µM; with `COC(=O)[C@@H](C)Cn1c(=O)[nH]/c(=N\c2ccc(OC3CCCCC3)cc2)n(Cc2ccc(C)cc2)c1=O` [Compound I-1219], 0.029 µM. The same measure, in the same setting: with `CC[C@@H](C)Oc1ccc(/N=c2\[nH]c(=O)n(C[C@H](C)C(=O)OC)c(=O)n2Cc2ccc(Cl)cc2)cc1` [Compound I-0727] the figure was 0.012 µM. As to `Cn1c(=O)[nH]/c(=N\c2ccc(Oc3ccnc(CO)c3)cc2)n(Cc2ccc(Cl)cc2)c1=O` [Compound I-2018], the IC50 was found to be 0.022 µM. The same measure, in the same setting: with `COc1cc(/N=c2\[nH]c(=O)n(C[C@H](C)C(=O)O)c(=O)n2Cc2ccc(Cl)cc2)ccc1CC(C)C` [Compound I-1270] the figure was 0.012 µM. As to `COC(=O)[C@@H](C)Cn1c(=O)[nH]/c(=N\c2ccc(CC(C)C)c(OC)c2)n(Cc2ccc(C)cc2)c1=O` [Compound I-1249], the IC50 was 0.021 µM. Take `COC(=O)[C@@H](C)Cn1c(=O)[nH]/c(=N\c2ccc(C(=O)C3CC3)cc2)n(Cc2ccc(C)cc2)c1=O` [Compound I-1302]: the IC50 is 0.169 µM.

As for `COc1cc(/N=c2\[nH]c(=O)n([C@@H](C)[C@@H](C)C(=O)O)c(=O)n2Cc2ccc(Cl)cc2)ccc1CC(C)C` [Compound I-1366], the IC50 stood at 0.02 µM. `COc1cc(/N=c2\[nH]c(=O)n(CC(C)(C)C(=O)O)c(=O)n2Cc2ccc(Cl)cc2)ccc1OC(C)C` [Compound I-1265]: the IC50 worked out at 0.022 µM. Same read-out and setting: with `COC(=O)[C@@H](C)Cn1c(=O)[nH]/c(=N\c2ccc(OC(C)C)c(C)c2)n(Cc2ccc(C)cc2)c1=O` [Compound I-0670] the figure was 0.008 µM; with `Cc1ccc(Cn2c(=O)n(CC(C)(C)C(=O)O)c(=O)[nH]/c2=N\c2ccc(OCC3CC3)cc2)cc1` [Compound I-1268], 0.052 µM; with `Cc1nc2ccc(/N=c3\[nH]c(=O)n(CCNCCO)c(=O)n3Cc3ccc(Cl)cc3)cc2s1` [Compound I-2163], 0.054 µM. Still for that read-out and setting: the same measure for `CC(C)Oc1ccc(/N=c2\[nH]c(=O)n(C[C@H]3COC(C)(C)O3)c(=O)n2Cc2ccc(Cl)cc2)cc1Cl` [Compound I-0633]: 0.004 µM.

For the compound `Cc1cc(/N=c2\[nH]c(=O)n(CCC(=O)O)c(=O)n2Cc2ccc(Cl)cc2)ccc1OC1CCC1` [Compound I-1407], the IC50 was determined as 0.036 µM.

For the compound `Cc1ccc(Cn2c(=O)n(C[C@H](C)C(=O)O)c(=O)[nH]/c2=N\c2ccc(OC3CCCC3)cc2)cc1` [Compound I-1189], the IC50 stood at 0.033 µM.

With `CNC(=O)Cn1c(=O)[nH]/c(=N\c2ccc(O[C@H](C)C(F)(F)F)cc2)n(Cc2ccc(Cl)cc2)c1=O` [Compound I-1960], the IC50 came to 0.054 µM. The same measure, in the same setting: with `CCOC(=O)CCn1c(=O)[nH]/c(=N\c2ccc(OC(C)C)c(COC)c2)n(Cc2ccc(C)cc2)c1=O` [Compound I-1421] the figure was 0.883 µM; with `COc1cc(/N=c2\[nH]c(=O)n(C[C@H](C)C(=O)O)c(=O)n2Cc2ccc(C)cc2)ccc1Br` [Compound I-1244], 0.473 µM; with `CCOC(=O)CCn1c(=O)[nH]/c(=N\c2ccc(Oc3ccncc3)cc2)n(Cc2ccc(C)cc2)c1=O` [Compound I-1230], 0.004 µM. Still for that read-out and setting: with `CCOC(=O)CC(C)(C)n1c(=O)[nH]/c(=N\c2ccc(OC(C)C)c(Cl)c2)n(Cc2ccc(Cl)cc2)c1=O` [Compound I-0810] the figure was 0.016 µM. On the same count and under the same terms, the same measure for `CCOC(=O)CCn1c(=O)[nH]/c(=N\c2ccc(CC(C)C)c(OC)c2)n(Cc2ccc(C)cc2)c1=O` [Compound I-1361]: 0.015 µM. Regarding `COC(=O)C(C)(C)n1c(=O)[nH]/c(=N\c2ccc(OC(C)C)c(Cl)c2)n(Cc2ccc(Cl)cc2)c1=O` [Compound I-0640], the IC50 worked out at 0.005 µM. Same read-out and setting: with `COc1cc(/N=c2\[nH]c(=O)n(CCC(=O)O)c(=O)n2Cc2ccc(Cl)cc2)ccc1CC(C)C` [Compound I-1355] the figure was 0.177 µM.

For the compound `CCn1c(=O)[nH]/c(=N\c2ccc(Oc3cncc(CO)c3)cc2)n(Cc2ccc(Cl)cc2)c1=O` [Compound I-2075], the IC50 turned out to be 0.021 µM. Take `CCOC(=O)CCn1c(=O)[nH]/c(=N\c2ccc(OC(C)C)c(CO)c2)n(Cc2ccc(C)cc2)c1=O` [Compound I-1424]: the IC50 was found to be 0.035 µM. Still for that read-out and setting: the same measure for `CCn1c(=O)[nH]/c(=N\c2ccc(Oc3cc(C(N)=O)ccn3)cc2)n(Cc2ccc(Cl)cc2)c1=O` [Compound I-2165]: 0.979 µM; for `Cc1cc(/N=c2\[nH]c(=O)n(Cc3cc(C(=O)O)no3)c(=O)n2Cc2ccc(Cl)cc2)ccc1OC(C)C` [Compound I-0802]: 0.021 µM.

Consider `Cc1ccc(Oc2ccc(/N=c3\[nH]c(=O)n(CCC(=O)O)c(=O)n3Cc3ccc(Cl)cc3)cc2)c(C)n1` [Compound I-1413], for which the IC50 is 0.072 µM. The same measure, in the same setting: with `COC(=O)[C@H](C)[C@H](C)n1c(=O)[nH]/c(=N\c2ccc(CC(C)C)c(Cl)c2)n(Cc2ccc(C)cc2)c1=O` [Compound I-1436] the figure was 0.054 µM.

Still in this assay, the particulars now being: C6BU-1 cells stably expressing human P2X3 receptor, Fluo-3 fluorescence, FDSS 3000.
`CCc1cc(/N=c2\[nH]c(=O)n(C[C@H](C)C(=O)OC)c(=O)n2Cc2ccc(C)cc2)ccc1OC(C)C` [Compound I-0908, (S)-1-(4-methylbenzyl)-6-(3-ethyl-4-isopropoxyphenylimino)-3-(2-methoxycarbonylpropyl)-1,3,5-triazinane-2,4-dion]: the IC50 is 0.013 µM. With `CCc1oc2ccc(/N=c3\[nH]c(=O)n(CC(C)(C)C(=O)O)c(=O)n3Cc3ccc(Cl)cc3)cc2c1C` [Compound I-1581], the IC50 was found to be 0.007 µM.

Consider `Cc1cc(/N=c2\[nH]c(=O)n([C@H](C)[C@@H](C)C(=O)N[C@H](C)[C@@H](O)c3ccccc3)c(=O)n2Cc2ccc(Cl)cc2)ccc1OC(C)C` [Compound I-1163], for which the IC50 turned out to be 0.823 µM. Still for that read-out and setting: the same measure for `C[C@@H](C(=O)O)[C@H](C)n1c(=O)[nH]/c(=N\c2ccc3[nH]c(S)nc3c2)n(Cc2ccc(Cl)cc2)c1=O` [Compound I-1822]: 0.332 µM; for `COC(=O)CCCCn1c(=O)[nH]/c(=N\c2ccc(OC(C)C)c(Cl)c2)n(Cc2ccc(C)cc2)c1=O` [Compound I-1873]: 0.002 µM; for `O=c1[nH]/c(=N\c2ccc(OCC3CC3)cc2)n(Cc2ccc(Cl)cc2)c(=O)n1C[C@H](O)CO` [Compound I-1855]: 0.021 µM. On the same count and under the same terms, the same measure for `CCc1nc2ccc(/N=c3\[nH]c(=O)n(CC(=O)O)c(=O)n3Cc3ccc(Cl)cc3)cc2s1` [Compound I-1798]: 0.15 µM; for `C[C@@H](Cn1c(=O)[nH]/c(=N\c2ccc3c(c2)CCCO3)n(Cc2ccc(Cl)cc2)c1=O)C(=O)O` [Compound I-1103]: 0.423 µM; for `COC(=O)[C@@H](C)Cn1c(=O)[nH]/c(=N\c2ccc(Br)cc2)n(Cc2ccc(C)cc2)c1=O` [Compound I-1076]: 0.177 µM. Same read-out and setting: with `CCOC(=O)C1(Cn2c(=O)[nH]/c(=N\c3ccc(OCC(C)C)cc3)n(Cc3ccc(Cl)cc3)c2=O)CC1` [Compound I-1007] the figure was 0.015 µM; with `COC(=O)CCn1c(=O)[nH]/c(=N\C2CCC(C)CC2)n(Cc2ccc(C)cc2)c1=O` (centres unmarked) [Compound I-1759], 0.408 µM. As for `COC(=O)[C@@H](C)Cn1c(=O)[nH]/c(=N\c2ccc(OC(C)C)cc2)n(Cc2ccc(I)cc2)c1=O` [Compound I-1080], the IC50 was 0.066 µM. Still for that read-out and setting: with `CCc1nc2ccc(/N=c3\[nH]c(=O)n(CCC(N)=O)c(=O)n3Cc3ccc(Cl)cc3)cc2s1` [Compound I-1768] the figure was 0.006 µM; with `CC[C@@H](C)Oc1ccc(/N=c2\[nH]c(=O)n(CCC(=O)O)c(=O)n2Cc2ccc(C)cc2)cc1Cl` [Compound I-1030], 0.014 µM; with `Cc1ccc(Cn2c(=O)n(C[C@H](C)C(=O)O)c(=O)[nH]/c2=N\c2ccc(Oc3ccncc3)cc2)cc1` [Compound I-1122], 0.008 µM.

The assay is the same for the next values; noted with them: human P2X3 receptor, Test Example 1.
As for `Cn1c(=O)[nH]/c(=N\c2ccc(Oc3cnc(C(=O)O)cn3)cc2)n(Cc2ccc(Cl)cc2)c1=O` [Compound I-2386], the IC50 amounted to 0.013 µM.

For `CCn1c(=O)[nH]/c(=N\c2ccc(Oc3cnccn3)cc2)n(Cc2ccc(Cl)cc2)c1=O` [Compound I-2642], the IC50 came to 0.011 µM.

Regarding `CCn1c(=O)[nH]/c(=N\c2ccc(Oc3cc(C(=O)O)sn3)cc2)n(Cc2ccc(Cl)cc2)c1=O` [Compound I-2249], the IC50 turned out to be 0.006 µM. As to `Cc1nsc(Oc2ccc(/N=c3\[nH]c(=O)n(C[C@H](O)CO)c(=O)n3Cc3ccc(Cl)cc3)cc2F)n1` [Compound I-2708], the IC50 worked out at 0.002 µM. For `CCOC(=O)C(F)(F)Cn1c(=O)[nH]/c(=N\c2ccc(OCC)c(Cl)c2)n(Cc2ccc(C)cc2)c1=O` [Compound I-0856], the IC50 is 0.012 µM. The same measure, in the same setting: with `O=c1[nH]/c(=N\c2ccc(Oc3cccc(F)n3)cc2)n(Cc2ccc(F)cc2)c(=O)n1CC(CO)CO` [Compound I-2583] the figure was 0.015 µM; with `O=c1[nH]/c(=N\c2ccc(Oc3nccs3)cc2)n(Cc2ccc(F)cc2)c(=O)n1CCCO` [Compound I-2507], 0.035 µM. On the same count and under the same terms, with `Cc1ccc(Cn2c(=O)n(C)c(=O)[nH]/c2=N\c2ccc(Oc3cnc(C(=O)O)cn3)cc2)cc1` [Compound I-2385] the figure was 0.013 µM. Same read-out and setting: the same measure for `O=C(O)c1cncc(Oc2ccc(/N=c3\[nH]c(=O)n(C4CC4)c(=O)n3Cc3ccc(Cl)cc3)cc2)c1` [Compound I-2331]: 0.007 µM; for `Cc1sc(Oc2ccc(/N=c3\[nH]c(=O)n(C)c(=O)n3Cc3ccc(Cl)cc3)cc2)nc1C(=O)O` [Compound I-2451]: 0.025 µM; for `CCn1c(=O)[nH]/c(=N\c2ccc(Oc3ccc(NC(=O)NC4CC4)nc3)cc2)n(Cc2ccc(Cl)cc2)c1=O` [Compound I-2243]: 0.006 µM. Consider `CCOC(=O)CCn1c(=O)[nH]/c(=N\c2ccc3nc(C)sc3c2)n(Cc2ccc(Cl)cc2)c1=O` [Compound I-1518], for which the IC50 amounted to 0.002 µM. Consider `CC[C@@H](Cn1c(=O)[nH]/c(=N\c2ccc(OC(C)C)c(C)c2)n(Cc2ccc(Cl)cc2)c1=O)C(=O)OC` [Compound I-0887], for which the IC50 was found to be 0.023 µM.

With `Cn1c(=O)[nH]/c(=N\c2ccc(Oc3cc(C(=O)O)n[nH]3)cc2)n(Cc2ccc(Cl)cc2)c1=O` [Compound I-2411], the IC50 is 0.166 µM.
